# Laboratory results published in publication PMC12692722, “The Tetrapeptide HAEE Promotes Amyloid-Beta Clearance from the Brain” (International Journal of Molecular Sciences, 2025).
# Residues, ends and D or L forms follow the SMILES beside them.
# Legend:
# HMC3 cells [1] = test: Aβ degradation assay in HMC3 cells with exocytosis inhibitor GW4869; format: cell-based, human; conditions: Aβ 1 µM 1 h, wash, then 3 h with 10 µM GW4869 ± 30 µM HAEE, ELISA, n = 3
# Protocol: HMC3 cells were treated with 1 µM Aβ in serum-free culture medium for 1 h to allow for peptide internalization. Cells were then washed to remove extracellular Aβ. […] Aβ released into the cell culture medium during the degradation phase was also quantified by ELISA.
# Aβ = molecular target: T1, Aβ (Homo sapiens, UniProt P05067); test: Aβ level in mouse brain tissue after i.c.v. oligomeric Aβ and HAEE (ELISA); format: in vivo; conditions: C57BL/6 mice, HAEE 100 µM 1 μL i.c.v. days 1-3, n = 8
# T1 construct: purchased Peptide Specialty Laboratories GmbH; host or cells: synthetic peptide
# T1 sequence (P05067 672-713): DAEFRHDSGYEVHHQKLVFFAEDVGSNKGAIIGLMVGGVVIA
# Protocol: (§1) After a recovery period, mice were randomly divided into two experimental groups using online GraphPad random number generator (Figure 1A, n = 8 per group): 1. The Aβ group received oligomeric Aβ and vehicle solution (ACSF). 2. The Aβ + HAEE group received oligomeric Aβ and the synthetic tetrapeptide HAEE (100 µM). The group allocation was unknown to the researchers who performed the neurosurgical procedures and ELISA.
# (§2) On day 1, all mice received an intracerebroventricular (i.c.v.) injection of oligomeric Aβ (1 μL). Immediately after, mice received the first i.c.v. injection of either HAEE (1 μL) or ACSF (1 μL). Injections were repeated on days 2 and 3 (HAEE or ACSF only). All injections were performed on awake, freely moving mice through the guide cannula at a rate of 1 μL/min. […]
# (§3) Aβ levels in the brain and cell lysates were measured by sandwich ELISA using BAM113cc capture antibodies (50 ng/well, HyTest, Moscow, Russia) and peroxidase-labeled BAM7cc antibodies (100 ng/well, HyTest, Moscow, Russia) as described in [46]. Aβ level was normalized to the protein concentration in the samples, measured using a Pierce™ BCA Protein Assay Kit (Thermo Fisher Scientific, Waltham, MA, USA). The rate of Aβ degradation was calculated as the difference in normalized Aβ level in the cells between the 48-hour and 24-hour time points divided by 24 h. […]
# IL-6 = IL-6 level in mouse brain tissue after i.c.v. oligomeric Aβ and HAEE (ELISA); format: in vivo; conditions: C57BL/6 mice; i.c.v. oligomeric Aβ day 1; HAEE 100 µM 1 μL i.c.v. days 1-3; ELISA of brain homogenate; vs Aβ + ACSF; n = 8
# Protocol: IL-6 and TNFα in all samples were assessed using commercial ELISA kits (IL-6 Mouse Uncoated ELISA Kit, Mouse TNF alpha Uncoated ELISA Kit, Thermo Fisher Scientific, Waltham, MA, USA) according to the manufacturer’s instructions.
# TNFα = TNFα level in mouse brain tissue after i.c.v. oligomeric Aβ and HAEE (ELISA); format: in vivo; conditions: C57BL/6 mice; i.c.v. oligomeric Aβ day 1; HAEE 100 µM 1 μL i.c.v. days 1-3; ELISA of brain homogenate; n = 8
# Protocol: as §1, §2, §3
# bEnd.3 cells = test: BBB transwell model: Aβ passage through bEnd.3 monolayer; format: cell-based, mouse; conditions: transwell 0.4 μm, Aβ 100 nM, HAEE 20 μM in abluminal compartment, serum-free DMEM, 37 °C, 24 h, ELISA, n = 5
# Protocol: For the experiments, mouse bEnd.3 cells were seeded onto the upper surface of transwell inserts (Greiner Bio-One, Kremsmünster, Austria; pore size 0.4 μm) at a density of 70,000 cells per insert and cultured for 7 days to form a confluent monolayer. The volume of medium in the luminal (upper) compartment was 750 μL and in the abluminal (lower) compartment was 1 mL.
# The luminal (upper) compartment contained 700 μL of serum-free DMEM. The plates were incubated at 37 °C and 5% CO2. Samples were collected from the luminal compartment at 24 h. […] To control model BBB integrity, paracellular permeability of the bEnd.3 monolayer was assessed using the fluorescent label sodium fluorescein (Sigma-Aldrich, St. Louis, MO, USA) in each experiment as described in [46].
# LRP1 = molecular target: T2, LRP1 (Mus musculus, UniProt Q91ZX7); test: Inhibitory assay: blocking antibody to LRP1, Aβ level in bEnd.3 cells; format: cell-based; conditions: blocking antibody 10 μg/mL 1 h, Aβ 100 nM + HAEE 20 μM, 2 h, ELISA, n = 3–4
# T2 construct: endogenous in cells; host or cells: bEnd.3
# T2 sequence (Q91ZX7 20-4545): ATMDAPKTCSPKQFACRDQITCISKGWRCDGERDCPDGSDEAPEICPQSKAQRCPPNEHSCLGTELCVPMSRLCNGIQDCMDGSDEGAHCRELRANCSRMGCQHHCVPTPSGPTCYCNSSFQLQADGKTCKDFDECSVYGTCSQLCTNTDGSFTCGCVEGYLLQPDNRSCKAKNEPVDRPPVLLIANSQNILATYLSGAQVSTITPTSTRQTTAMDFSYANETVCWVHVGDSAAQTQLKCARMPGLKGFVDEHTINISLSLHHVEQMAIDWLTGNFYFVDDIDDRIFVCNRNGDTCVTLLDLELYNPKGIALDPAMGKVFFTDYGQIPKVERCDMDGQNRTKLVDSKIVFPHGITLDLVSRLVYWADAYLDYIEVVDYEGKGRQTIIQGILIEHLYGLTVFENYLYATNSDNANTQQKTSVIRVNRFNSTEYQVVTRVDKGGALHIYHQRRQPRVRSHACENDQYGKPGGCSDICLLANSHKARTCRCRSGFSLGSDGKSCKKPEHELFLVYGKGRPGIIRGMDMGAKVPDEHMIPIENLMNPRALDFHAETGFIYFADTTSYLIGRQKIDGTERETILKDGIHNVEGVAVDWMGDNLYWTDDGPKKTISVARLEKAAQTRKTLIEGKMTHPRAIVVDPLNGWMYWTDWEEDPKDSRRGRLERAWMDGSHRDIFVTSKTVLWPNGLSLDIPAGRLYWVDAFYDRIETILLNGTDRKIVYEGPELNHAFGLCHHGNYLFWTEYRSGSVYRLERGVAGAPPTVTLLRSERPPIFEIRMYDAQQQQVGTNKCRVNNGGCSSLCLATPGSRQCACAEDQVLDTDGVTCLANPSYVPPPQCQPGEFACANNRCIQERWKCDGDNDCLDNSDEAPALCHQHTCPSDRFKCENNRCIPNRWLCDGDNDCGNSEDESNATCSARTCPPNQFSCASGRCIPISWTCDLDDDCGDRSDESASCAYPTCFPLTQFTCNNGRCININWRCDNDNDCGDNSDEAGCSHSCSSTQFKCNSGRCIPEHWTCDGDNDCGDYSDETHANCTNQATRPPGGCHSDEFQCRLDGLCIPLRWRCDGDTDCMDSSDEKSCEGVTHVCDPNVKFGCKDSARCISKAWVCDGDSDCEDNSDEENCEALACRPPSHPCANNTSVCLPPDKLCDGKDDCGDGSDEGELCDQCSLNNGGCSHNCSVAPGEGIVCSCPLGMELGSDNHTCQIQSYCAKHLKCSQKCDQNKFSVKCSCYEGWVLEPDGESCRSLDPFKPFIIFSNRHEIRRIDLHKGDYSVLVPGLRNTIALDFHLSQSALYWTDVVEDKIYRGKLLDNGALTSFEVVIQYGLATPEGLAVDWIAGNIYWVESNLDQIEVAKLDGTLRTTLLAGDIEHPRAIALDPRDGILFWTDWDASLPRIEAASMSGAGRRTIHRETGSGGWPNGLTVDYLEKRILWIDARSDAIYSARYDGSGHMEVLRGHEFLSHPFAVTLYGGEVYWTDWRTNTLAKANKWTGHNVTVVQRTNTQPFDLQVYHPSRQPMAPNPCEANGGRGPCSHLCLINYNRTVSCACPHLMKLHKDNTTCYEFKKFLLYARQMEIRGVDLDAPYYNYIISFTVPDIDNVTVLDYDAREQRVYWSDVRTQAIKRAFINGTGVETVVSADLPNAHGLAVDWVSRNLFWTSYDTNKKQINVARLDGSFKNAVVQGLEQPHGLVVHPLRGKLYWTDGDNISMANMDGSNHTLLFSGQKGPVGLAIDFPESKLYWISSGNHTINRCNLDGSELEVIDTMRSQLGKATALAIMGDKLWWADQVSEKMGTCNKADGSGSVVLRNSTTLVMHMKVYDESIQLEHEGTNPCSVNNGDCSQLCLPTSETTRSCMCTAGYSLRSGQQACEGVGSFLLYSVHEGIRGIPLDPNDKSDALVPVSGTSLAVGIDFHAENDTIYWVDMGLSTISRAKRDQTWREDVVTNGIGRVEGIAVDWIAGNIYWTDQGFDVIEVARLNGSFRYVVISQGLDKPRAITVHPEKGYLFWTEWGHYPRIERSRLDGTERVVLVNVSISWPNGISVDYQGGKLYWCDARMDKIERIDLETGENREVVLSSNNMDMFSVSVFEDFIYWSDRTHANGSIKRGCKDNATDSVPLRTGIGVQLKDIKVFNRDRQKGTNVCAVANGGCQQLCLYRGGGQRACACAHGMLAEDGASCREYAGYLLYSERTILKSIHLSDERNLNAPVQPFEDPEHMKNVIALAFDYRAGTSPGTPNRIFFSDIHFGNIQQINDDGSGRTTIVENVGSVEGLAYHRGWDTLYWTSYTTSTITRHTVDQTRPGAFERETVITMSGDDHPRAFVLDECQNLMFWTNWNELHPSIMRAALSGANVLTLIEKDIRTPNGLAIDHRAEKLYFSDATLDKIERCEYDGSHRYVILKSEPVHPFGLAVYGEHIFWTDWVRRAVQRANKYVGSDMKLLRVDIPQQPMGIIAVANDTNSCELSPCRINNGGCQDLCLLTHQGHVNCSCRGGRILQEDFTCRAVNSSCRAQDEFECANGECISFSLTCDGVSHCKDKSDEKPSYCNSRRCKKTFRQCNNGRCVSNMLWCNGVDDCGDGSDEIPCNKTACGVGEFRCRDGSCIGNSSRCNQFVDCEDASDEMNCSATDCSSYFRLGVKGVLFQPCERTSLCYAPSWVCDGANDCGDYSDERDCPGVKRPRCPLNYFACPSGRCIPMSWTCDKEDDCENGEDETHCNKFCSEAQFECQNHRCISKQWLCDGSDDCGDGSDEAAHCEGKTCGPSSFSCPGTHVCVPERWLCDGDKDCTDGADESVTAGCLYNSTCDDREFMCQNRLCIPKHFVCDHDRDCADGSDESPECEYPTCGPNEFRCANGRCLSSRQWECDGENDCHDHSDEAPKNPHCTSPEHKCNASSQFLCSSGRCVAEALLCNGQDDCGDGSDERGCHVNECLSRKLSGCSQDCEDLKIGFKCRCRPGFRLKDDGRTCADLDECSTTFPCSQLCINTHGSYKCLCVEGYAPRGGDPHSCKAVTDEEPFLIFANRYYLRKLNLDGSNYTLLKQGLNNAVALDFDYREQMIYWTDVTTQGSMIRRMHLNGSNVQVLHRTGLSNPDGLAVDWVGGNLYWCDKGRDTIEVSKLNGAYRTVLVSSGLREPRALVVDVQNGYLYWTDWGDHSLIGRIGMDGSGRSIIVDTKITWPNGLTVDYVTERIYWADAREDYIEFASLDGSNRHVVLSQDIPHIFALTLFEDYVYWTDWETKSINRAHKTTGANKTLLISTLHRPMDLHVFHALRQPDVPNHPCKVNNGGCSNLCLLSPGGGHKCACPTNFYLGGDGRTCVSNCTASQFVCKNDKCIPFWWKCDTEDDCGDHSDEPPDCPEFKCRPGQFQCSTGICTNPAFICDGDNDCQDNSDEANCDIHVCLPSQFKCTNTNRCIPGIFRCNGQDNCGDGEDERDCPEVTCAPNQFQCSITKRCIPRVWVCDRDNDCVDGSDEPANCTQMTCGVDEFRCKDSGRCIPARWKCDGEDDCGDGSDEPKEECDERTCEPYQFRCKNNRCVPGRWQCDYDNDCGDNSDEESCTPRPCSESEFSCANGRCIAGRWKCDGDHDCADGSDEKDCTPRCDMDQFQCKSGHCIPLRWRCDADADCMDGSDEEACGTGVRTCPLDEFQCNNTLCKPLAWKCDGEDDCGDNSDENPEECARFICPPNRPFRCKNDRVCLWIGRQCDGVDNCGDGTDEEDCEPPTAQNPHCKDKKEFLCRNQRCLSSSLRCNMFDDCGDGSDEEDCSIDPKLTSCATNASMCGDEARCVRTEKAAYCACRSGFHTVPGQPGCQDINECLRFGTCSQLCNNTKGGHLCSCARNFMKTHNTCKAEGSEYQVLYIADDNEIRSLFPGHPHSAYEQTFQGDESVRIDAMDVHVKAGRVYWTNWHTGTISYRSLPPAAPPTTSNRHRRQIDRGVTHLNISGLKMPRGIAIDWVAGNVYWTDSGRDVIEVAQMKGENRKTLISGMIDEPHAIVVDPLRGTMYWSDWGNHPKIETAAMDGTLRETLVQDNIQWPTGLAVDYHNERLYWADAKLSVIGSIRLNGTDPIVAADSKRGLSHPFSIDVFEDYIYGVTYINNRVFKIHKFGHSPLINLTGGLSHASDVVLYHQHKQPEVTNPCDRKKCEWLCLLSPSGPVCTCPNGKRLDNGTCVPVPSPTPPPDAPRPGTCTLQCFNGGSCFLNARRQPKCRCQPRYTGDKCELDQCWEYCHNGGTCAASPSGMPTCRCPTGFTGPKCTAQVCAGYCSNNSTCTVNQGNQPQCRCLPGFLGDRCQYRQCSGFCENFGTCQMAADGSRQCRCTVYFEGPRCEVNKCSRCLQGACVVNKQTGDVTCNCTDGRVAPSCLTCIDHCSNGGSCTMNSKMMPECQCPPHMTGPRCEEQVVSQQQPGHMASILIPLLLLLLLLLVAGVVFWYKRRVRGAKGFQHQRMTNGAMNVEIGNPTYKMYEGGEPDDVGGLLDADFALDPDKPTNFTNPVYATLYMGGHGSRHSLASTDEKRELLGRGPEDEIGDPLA
# Protocol: Cells were incubated with blocking antibodies to LRP or Pgp receptors (10 μg/mL, Santa Cruz Biotechnology, Dallas, TX, USA) for 1 h at +37 °C. […] After 2 h, the cells were washed 3 times with PBS, frozen in liquid nitrogen, and lysed in IP lysis buffer (ServiceBio, Wuhan, China) with the addition of a protease inhibitor (Thermo Fisher Scientific, Waltham, MA, USA) for 1 h at +4 °C with stirring. The cell lysate was centrifuged at 16,000× g, +4 °C, 10 min and the supernatant was collected. The amount of total protein in the lysates was determined using a BCA assay kit (Sigma-Aldrich, St. Louis, MO, USA) according to the manufacturer’s protocol.
# [2] = system: mixed primary culture of mouse brain cells; test: Aβ uptake and clearance in mixed primary culture of brain cells (ELISA); format: cell-based, C57BL/6 mouse; conditions: Aβ 1 µM, HAEE 30 µM, n = 4
# [3] = system: primary astrocyte culture; test: Aβ uptake and clearance in primary astrocyte culture (ELISA); format: cell-based, C57BL/6 mouse; conditions: Aβ 1 µM, HAEE 30 µM, n = 4
# HMC3 microglial cells = test: Aβ uptake and clearance in HMC3 microglial cells (ELISA); format: cell-based, human; conditions: Aβ 1 µM, HAEE 30 µM, n = 6
# HMC3 cells [4] = test: Lysosomal staining of HMC3 cells with LysoTracker Red DND-99; format: cell-based, human; conditions: Aβ 1 μM + HAEE 30 μM, 24 h, 10 cells per field, n = 3
# Protocol: Two hours prior to the completion of the incubation period, LysoTracker Red DND-99 (Thermo Fisher Scientific, Waltham, MA, USA) was added to the culture medium at a final concentration of 50 nM to label acidic compartments, including active lysosomes. Immediately before live-cell imaging, cell nuclei were counterstained with NucBlue Live Cell Stain (Thermo Fisher Scientific, Waltham, MA, USA) according to the manufacturer’s instructions. Fluorescent images were acquired using a Nikon Eclipse Ni-U (Nikon Corp., Tokyo, Japan) microscope with appropriate filter sets.
# Aβ oligomers [5] = molecular target: T3, Aβ oligomers (Homo sapiens, UniProt P05067); test: Dynamic light scattering of Aβ oligomers; format: physicochemical; conditions: Aβ 50 µM in PBS, 24 h 37 °C, then HAEE 500 µM for additional 24 h 37 °C; measured at 25 °C; triplicate
# T3 construct: purchased Peptide Specialty Laboratories GmbH; host or cells: synthetic peptide
# T3 sequence (P05067 672-713): as the sequence (P05067 672-713) above
# Protocol: The size distribution of Aβ oligomers was characterized by DLS using a Zetasizer Nano ZS instrument (Malvern Panalytical, Malvern, UK). Oligomeric Aβ was prepared as described in Section 4.6 and further incubated at a concentration of 50 µM in PBS for 24 h at 37 °C to promote oligomerization. To assess the effect of HAEE, the peptide was added to the pre-formed Aβ oligomers at a final concentration of 500 µM (dissolved in PBS), and the mixture was incubated for an additional 24 h at 37 °C. A control sample containing Aβ without HAEE was processed in parallel under identical conditions. Immediately prior to analysis, samples were briefly centrifuged to sediment any large aggregates and transferred to a disposable polystyrene cuvette (Sarstedt, Nümbrecht, Germany). Measurements were performed at 25 °C, and the hydrodynamic diameter (reported as Z-average) and polydispersity index (PDI) were derived from the correlation function using the Zetasizer Software version 7.13 (Malvern Panalytical, Malvern, UK). Each sample was measured in triplicate.
# Aβ oligomers [6] = molecular target: T3, Aβ oligomers; test: Oligomer-specific ELISA of Aβ; format: biochemical; conditions: pre-formed Aβ oligomers in the presence vs absence of HAEE; BAM7cc capture and detection
# Protocol: To measure Aβ oligomers using ELISA, two antibodies (a capture antibody and a detector antibody) targeting the same epitope are used. This method therefore allows for the detection of predominantly oligomeric forms of Aβ, which have epitopes available for binding to both the detection antibody and the capture antibody.
# BAM7cc antibodies (HyTest, Moscow, Russia), which recognize the N-terminus of Aβ, were added to a 96-well ELISA plate (Wuxi NEST Biotechnology, Wuxi, China) in a volume of 100 μL (0.5 ng/μL) and incubated overnight at +4 °C. The wells of the plate were washed 3 times with 300 μL of PBST (0.05% Tween20) and blocked in 1% BSA (Diaem, Moscow, Russia) in PBST at room temperature and shaken for 1 h. The plate was then washed three times with 300 μL of PBST, and samples were added at a volume of 100 μL per well. The plates were incubated for 2 h at room temperature with shaking, washed 3 times with 300 μL of PBST, and HRP-conjugated BAM7cc antibodies (HyTest, Moscow, Russia) were added at a volume of 100 μL per well (1 ng/μL). The plates were incubated for 1 hour at room temperature with shaking, washed 5 times with 300 μL of PBST, and analyzed using TMB (Diaem, Moscow, Russia). Absorbance was measured at 450 nm using a Multiskan FC Microplate Photometer (Thermo Fisher Scientific, Waltham, MA, USA).
# HMC3 cells [7] = test: IL-6 level in HMC3 supernatant (ELISA); format: cell-based, human; conditions: Aβ 1 µM + HAEE 30 µM, 24 h, n = 3
# From the text: Subsequently, cells were frozen in liquid nitrogen.
# HMC3 cells [8] = test: Intracellular ROS and GSH in HMC3 cells by flow cytometry; format: cell-based, human; conditions: Aβ + HAEE, 24 h
# Protocol: The cells were stained with dihydrorhodamine 123 (Ex/Em = 507/525 nm) or monobromobimane (Ex/Em = 395/495 nm) according to ThermoFisher Scientific’s instructions. One minute prior to analysis, 10 μg/mL of propidium iodide (Ex/Em = 535/617 nm, Sigma, St. Louis, MO, USA) was added to the cell samples to evaluate the number of dead cells in the population. The analysis was performed using a BD LSR Fortessa flow cytometer (Becton Dickinson, Franklin Lakes, NJ, USA) and FlowJo^TM Software v.10.8.1 (Becton Dickinson, Franklin Lakes, NJ, USA).
# [9] = cited from earlier work
# From the text: ApoE4 is the primary genetic risk factor for the sporadic form of AD. Unlike other ApoE isoforms, ApoE4 impairs TREM2-dependent microglial phagocytosis, promotes microglial activation, and contributes to chronic neuroinflammation in AD [41, 42].
# [10] = system: nicotinic α4β2 acetylcholine receptors; design: method as in PMID 34207317; conditions: cited from earlier work
# [11] = system: zinc-induced Aβ oligomers; design: method as in PMID 32872553, PMID 21081056; conditions: binds to Aβ at the 11EVHH14 site; cited from earlier work
structure (smiles),measurement,setting,value
"O=C(/C=C/c1ccc(/C=C/C(=O)Nc2ccc(C3=NCCN3)cc2)cc1)Nc1ccc(C2=NCCN2)cc1 [GW4869, reference compound]",effect of GW4869 on HAEE-dependent Aβ clearance in microglial cells,HMC3 cells [1],did not prevent the effect of HAEE
"CC(=O)N[C@@H](Cc1c[nH]cn1)C(=O)N[C@@H](C)C(=O)N[C@@H](CCC(=O)O)C(=O)N[C@@H](CCC(=O)O)C(N)=O [HAEE, Acetyl-HAEE-Amide] (Ac-HAEE-NH2)",reduction of Aβ level in mouse brain tissue,"Aβ; 8-month-old, i.c.v. oligomeric Aβ 1 μL day 1, brain lysate ELISA 30 min after final injection, vs Aβ + ACSF",35%
same,Aβ level in the brain of mice treated with HAEE compared to animals that did not receive the tetrapeptide,"Aβ; i.c.v. oligomeric Aβ day 1, ELISA",reliably reduced
same,decrease in IL-6 levels in mouse brain tissue,IL-6,40%
same,effect on TNFα levels in mouse brain tissue,TNFα,no effect
same,rate of Aβ passage across the BBB from abluminal to luminal compartment,bEnd.3 cells,significantly increased
same,"reduction of Aβ uptake by endothelial cells on blocking LRP1, in the presence of HAEE",LRP1,30%
same,effect on Aβ clearance by the cells at 24–48 h,[2]; clearance rate = difference of Aβ level 48 h vs 24 h divided by 24 h,notably accelerated
same,effect on intracellular Aβ level at 4–24 h,"[2]; medium without FBS, ELISA",did not significantly affect
same,effect on the rate of Aβ clearance,[3]; 24–48 h period,did not affect
same,level of intracellular Aβ after 24–48 h of incubation compared to cells treated with Aβ alone,[3]; ELISA,decreased
same,rate of Aβ clearance,HMC3 microglial cells; 24–48 h period,doubled
same,amount of intracellular Aβ after 24 h and 48 h of incubation compared to cells not treated with HAEE,HMC3 microglial cells; ELISA,significantly reduced
same,effect on Aβ-induced changes in lysosomes (size and number),HMC3 cells [4],completely abolished
same,"reduction of intracellular Aβ level, HAEE + GW4869 compared to GW4869 alone",HMC3 cells [1],40%
same,average size of Aβ oligomers (DLS),Aβ oligomers [5],reduced their average size
same,amount of Aβ oligomers (oligomer-specific ELISA),Aβ oligomers [6],reduced the amount of Aβ oligomers
same,effect on Aβ-induced increase in IL-6 level,HMC3 cells [7],effectively inhibited
same,effect on Aβ-induced change in reactive oxygen species (ROS) level,"HMC3 cells [8]; dihydrorhodamine 123, n = 4",completely prevented
same,effect on Aβ-induced change in reduced glutathione (GSH) level,"HMC3 cells [8]; monobromobimane, n = 4",completely prevented
same,toxicity,[9],non-toxic
same,effect on the inhibitory effect of Aβ42 on nicotinic α4β2 acetylcholine receptors,[10],completely abolishes
same,"formation of toxic, zinc-induced Aβ oligomers",[11],blocks
